Experimental data as given in PMC5517430, “2,3,7,8-Tetrachlorodibenzo-p-dioxin (TCDD)-elicited effects on bile acid homeostasis: Alterations in biosynthesis, enterohepatic circulation, and microbial metabolism” (Scientific Reports, 2017).

Tests used:
[1] = system: hepatic taurine and glycine; parameters: method as in PMID 26582802; settings: female mice, cited from earlier work
liver of C57BL/6 mice [2] = test: Histopathological scoring of liver sections; assay type: in vivo, mouse; parameters: Fibrosis (periportal), Mean Grade / Vacuolation (centrilobular), Mean Grade / Necrosis; Inflammatory cell foci, Mean Grade / Bile duct proliferation, Mean Grade: scale not given here; settings: for Bile duct proliferation, Mean Grade / Fibrosis (periportal), Mean Grade / Necrosis; Inflammatory cell foci, Mean Grade / Vacuolation (centrilobular), Mean Grade: mean ±SD; for Dose at which hepatocyte vacuolization (fatty change) was first observed / Doses at which minimal to slight hepatocyte necrosis and inflammatory cell infiltration were present: every 4 d for 28 d
Method: Postnatal day 25 (PND25) male C57BL/6 mice weighing within 10% of each other were obtained from Charles River Laboratories (Kingston, NY) and housed in Innovive Innocages (San Diego, CA) containing ALPHA-dri bedding (Shepherd Specialty Papers, Chicago, IL) in a 23 °C environment with 30–40% humidity and a 12-hour light/dark cycle (7am–7 pm). Mice were provided Aquavive water (Innovive) and Harlan Teklad 22/5 Rodent Diet 8940 (Madison, WI) ad libitum, and were acclimated for […] prior to treatment. Beginning on PND28, animals (n = 8; co-housed 4 per cage) were orally gavaged with sesame oil vehicle (Sigma-Aldrich, St. Louis, MO), 0.01, 0.03, 0.1, 0.3, 1, 3, 10, or 30 μg/kg TCDD (AccuStandard, New Haven, CT) every 4d for a total of 28d (7 exposures; Supplementary Fig. S3). The doses used compensate for the relatively short study duration compared to lifelong cumulative human exposure from diverse AhR ligands, the bioaccumulative nature of halogenated AhR ligands, and differences in TCDD’s metabolism and half-life (humans: 1–11 years, [61], mice: 8–12d[62]). TCDD doses between 0.01 and 30 µg/kg result in mouse hepatic tissue levels that span human background serum concentrations reported in the United States, Germany, Spain, and the United Kingdom as well as serum levels in Viktor Yushchenko 4–39 months following intentional poisoning. For the histopathological comparison, female C57BL/6 mice were orally gavaged with sesame oil vehicle or 0.01–30 µg/kg TCDD every 4d for 28d, as previously described. All animal handling procedures were performed with the approval of the Michigan State University (MSU) Institutional Animal Care and Use Committee, in accordance with the relevant ethical guidelines and regulations.
(§1) All processing was performed by the MSU Investigative Histopathology Laboratory (https://humanpathology.natsci.msu.edu/). Formalin-fixed hepatic tissues were vacuum infiltrated with paraffin using a Tissue-Tek VIP 2000 tissue processor (Sakura) and embedded with the Thermo Fisher HistoCentre III Embedding Center (Thermo Fisher, Waltham, Massachusetts). Paraffin blocks were sectioned at 4–5 µm with a Reichert Jung 2030 rotary microtome (Reichert, Depew, New York) and dried for 2–24 h at 56 °C to ensure adherence to the slides. For lipid staining, liver sections frozen in O.C.T. compound were sectioned at 6 µm, fixed in 10% NBF for 5 min, rinsed with water, and immersed in 100% propylene glycol for 5 min. Liver sections were stained with hematoxylin and eosin (H&E) for general histological assessment. Lipids were stained using Oil Red O (ORO) as previously described. Macrophages were labeled using a monoclonal anti-mouse F4/80 antibody (1:100 dilution; AbD Serotec, Raleigh, NC). Collagen was stained with 0.1% Picro-Sirius Red (PSR) dye, with Weigert’s Hematoxylin nuclear dye. Histological assessment of hepatic tissue from female C57BL/6 mice was performed as previously described, [32].

male C57BL/6 mice = test: Whole gut transit time with carmine red dye; assay type: in vivo, mouse
Method: At 27d after the initial dose (PND55), whole gut transit time (WGTT) was determined using carmine red dye, which cannot be intestinally absorbed. At time 0 (t0), mice were orally gavaged with 150 µL of carmine red solution (6% carmine red dye suspended in 0.5% methylcellulose). Fecal pellets were monitored continuously for the presence of carmine red. WGTT represents the time interval between t0 and the first observance of carmine red dye in the fecal pellets.

liver of C57BL/6 mice [3] = test: QuHAnT quantitation of Oil Red O staining (hepatic fat accumulation); assay type: in vivo, mouse; settings: 30 µg/kg TCDD every 4 d for 28 d
Method: as §1, with “Macrophages were labeled using a monoclonal anti-mouse F4/80 antibody (1:100 dilution; AbD Serotec, Raleigh, NC). Collagen was stained with 0.1% Picro-Sirius Red (PSR) dye, with Weigert’s Hematoxylin nuclear dye. Histological assessment of hepatic tissue from female C57BL/6 mice was performed as previously described, [32].” left out
Quantitation of ORO staining was performed using the Quantitative Histological Analysis Tool (QuHAnT)[66]. […] Using ImageJ (http://rsb.info.nih.gov.ij/), optimal hue, saturation, and value (HSV) image segmentation thresholds for feature extraction were determined to be 0 to 50 and 225 to 255 (hue), 125 to 255 (saturation), and 0 to 255 (value), while optimal total tissue feature extraction thresholds were 0 to 255 (hue), 20 to 255 (saturation), and 0 to 255 (value). […]

[4] = female, 0.3 µg/kg TCDD every 4 d for 28 d
[5] = female, 1 µg/kg TCDD every 4 d for 28 d
[6] = female, 3 µg/kg TCDD every 4 d for 28 d
[7] = female, 10 µg/kg TCDD every 4 d for 28 d
[8] = female, 30 µg/kg TCDD every 4 d for 28 d
[9] = male, 0.3 µg/kg TCDD every 4 d for 28 d
[10] = male, 1 µg/kg TCDD every 4 d for 28 d
[11] = male, 3 µg/kg TCDD every 4 d for 28 d
[12] = male, 10 µg/kg TCDD every 4 d for 28 d
[13] = male, 30 µg/kg TCDD every 4 d for 28 d

Clc1cc2c(cc1Cl)Oc1cc(Cl)c(Cl)cc1O2 [TCDD, 2,3,7,8-tetrachlorodibenzo-p-dioxin]
Hepatic taurine level, max fold increase ([1]; p = 0.05): 1.4 fold | Hepatic glycine level, max fold increase ([1]; p = 0.10): 20.3 fold | Inflammation surrounding the bile ducts (pericholangitis) (liver of C57BL/6 mice [2]; 30 µg/kg TCDD every 4 d for 28 d, male vs female): exclusive to males | Bile duct proliferation, Incidence (liver of C57BL/6 mice [2]; [4]): 0/8 | Fibrosis (periportal), Incidence (liver of C57BL/6 mice [2]; [4]): 0/8 | Necrosis; Inflammatory cell foci, Incidence (liver of C57BL/6 mice [2]; [4]): 0/8 | Vacuolation (centrilobular), Incidence (liver of C57BL/6 mice [2]; [4]): 0/8 | Bile duct proliferation, Incidence (liver of C57BL/6 mice [2]; [5]): 0/6 | Fibrosis (periportal), Incidence (liver of C57BL/6 mice [2]; [5]): 0/6 | Necrosis; Inflammatory cell foci, Incidence (liver of C57BL/6 mice [2]; [5]): 0/6 | Vacuolation (centrilobular), Incidence (liver of C57BL/6 mice [2]; [5]): 0/6 | Bile duct proliferation, Incidence (liver of C57BL/6 mice [2]; [6]): 0/6 | Fibrosis (periportal), Incidence (liver of C57BL/6 mice [2]; [6]): 0/6 | Necrosis; Inflammatory cell foci, Incidence (liver of C57BL/6 mice [2]; [6]): 0/6 | Vacuolation (centrilobular), Incidence (liver of C57BL/6 mice [2]; [6]): 0/6 | Bile duct proliferation, Incidence (liver of C57BL/6 mice [2]; [7]): 0/4 | Fibrosis (periportal), Incidence (liver of C57BL/6 mice [2]; [7]): 0/4 | Necrosis; Inflammatory cell foci, Incidence (liver of C57BL/6 mice [2]; [7]): 0/4 | Vacuolation (centrilobular), Incidence (liver of C57BL/6 mice [2]; [7]): 1/4 | Bile duct proliferation, Incidence (liver of C57BL/6 mice [2]; [8]): 1/4 | Fibrosis (periportal), Incidence (liver of C57BL/6 mice [2]; [8]): 1/4 | Necrosis; Inflammatory cell foci, Incidence (liver of C57BL/6 mice [2]; [8]): 1/4 | Vacuolation (centrilobular), Incidence (liver of C57BL/6 mice [2]; [8]): 4/4 | Bile duct proliferation, Mean Grade (liver of C57BL/6 mice [2]; [8]): 0.3 ± 0.5 | Fibrosis (periportal), Mean Grade (liver of C57BL/6 mice [2]; [8]): 0.3 ± 0.5 | Necrosis; Inflammatory cell foci, Mean Grade (liver of C57BL/6 mice [2]; [8]): 0.3 ± 0.5 | Vacuolation (centrilobular), Mean Grade (liver of C57BL/6 mice [2]; [8]): 2.0 ± 1.2 | Dose at which hepatocyte vacuolization (fatty change) was first observed (liver of C57BL/6 mice [2]; females): 10 µg/kg | Doses at which minimal to slight hepatocyte necrosis and inflammatory cell infiltration were present (liver of C57BL/6 mice [2]; females): 30 µg/kg | Bile duct proliferation, Incidence (liver of C57BL/6 mice [2]; [9]): 0/8 | Fibrosis (periportal), Incidence (liver of C57BL/6 mice [2]; [9]): 0/8 | Necrosis; Inflammatory cell foci, Incidence (liver of C57BL/6 mice [2]; [9]): 0/8 | Vacuolation (centrilobular), Incidence (liver of C57BL/6 mice [2]; [9]): 1/8 | Vacuolation (centrilobular), Mean Grade (liver of C57BL/6 mice [2]; [9]): 0.1 ± 0.4 | Bile duct proliferation, Incidence (liver of C57BL/6 mice [2]; [10]): 0/8 | Fibrosis (periportal), Incidence (liver of C57BL/6 mice [2]; [10]): 0/8 | Necrosis; Inflammatory cell foci, Incidence (liver of C57BL/6 mice [2]; [10]): 0/8 | Vacuolation (centrilobular), Incidence (liver of C57BL/6 mice [2]; [10]): 5/8 | Vacuolation (centrilobular), Mean Grade (liver of C57BL/6 mice [2]; [10]): 0.9 ± 0.8 | Bile duct proliferation, Incidence (liver of C57BL/6 mice [2]; [11]): 0/8 | Fibrosis (periportal), Incidence (liver of C57BL/6 mice [2]; [11]): 0/8 | Necrosis; Inflammatory cell foci, Incidence (liver of C57BL/6 mice [2]; [11]): 2/8 | Vacuolation (centrilobular), Incidence (liver of C57BL/6 mice [2]; [11]): 6/8 | Necrosis; Inflammatory cell foci, Mean Grade (liver of C57BL/6 mice [2]; [11]): 0.3 ± 0.5 | Vacuolation (centrilobular), Mean Grade (liver of C57BL/6 mice [2]; [11]): 1.0 ± 0.8 | Bile duct proliferation, Incidence (liver of C57BL/6 mice [2]; [12]): 0/8 | Fibrosis (periportal), Incidence (liver of C57BL/6 mice [2]; [12]): 0/8 | Necrosis; Inflammatory cell foci, Incidence (liver of C57BL/6 mice [2]; [12]): 6/8 | Vacuolation (centrilobular), Incidence (liver of C57BL/6 mice [2]; [12]): 8/8 | Necrosis; Inflammatory cell foci, Mean Grade (liver of C57BL/6 mice [2]; [12]): 0.8 ± 0.5 | Vacuolation (centrilobular), Mean Grade (liver of C57BL/6 mice [2]; [12]): 3.0 ± 0.5 | Bile duct proliferation, Incidence (liver of C57BL/6 mice [2]; [13]): 5/8 | Fibrosis (periportal), Incidence (liver of C57BL/6 mice [2]; [13]): 5/8 | Necrosis; Inflammatory cell foci, Incidence (liver of C57BL/6 mice [2]; [13]): 8/8 | Vacuolation (centrilobular), Incidence (liver of C57BL/6 mice [2]; [13]): 8/8 | Bile duct proliferation, Mean Grade (liver of C57BL/6 mice [2]; [13]): 0.9 ± 0.8 | Fibrosis (periportal), Mean Grade (liver of C57BL/6 mice [2]; [13]): 0.6 ± 0.5 | Necrosis; Inflammatory cell foci, Mean Grade (liver of C57BL/6 mice [2]; [13]): 1.3 ± 0.5 | Vacuolation (centrilobular), Mean Grade (liver of C57BL/6 mice [2]; [13]): 4.0 ± 0.0 | Dose at which hepatocyte vacuolization (fatty change) was first observed (liver of C57BL/6 mice [2]; males): 0.3 µg/kg | Doses at which minimal to slight hepatocyte necrosis and inflammatory cell infiltration were present (liver of C57BL/6 mice [2]; males): ≥ 3 µg/kg | Whole gut transit time (male C57BL/6 mice; 30 µg/kg TCDD every 4 d, 27 d after initial dose, controls 2.5 h): 4.1 h | Reduction in gut motility (male C57BL/6 mice; 30 µg/kg TCDD vs controls): 1.6 fold | Hepatic fat accumulation (ORO), males compared to females (liver of C57BL/6 mice [3]): 6.2 fold
